Several values for one entry are separate records, joined by “and”; a condition that tells them apart may be missing. Equal values may be shown once. Read-outs that look alike come from different tables or passages of the source. Non-standard residues stand in square brackets, D forms with d. Residues, ends and D or L forms follow the SMILES beside them. *: point of attachment. Sta = CC(C)C[C@H](N)[C@@H](O)CC(=O)O; Isovaleryl = CC(C)CC(=O)*
How the values were obtained:
[1] = molecular target: T1, Rlig1-AMP (Homo sapiens, UniProt Q8N999); assay: FRET-based high-throughput screening of inhibitors for Rlig1-AMP; assay type: biochemical; conditions: for 1-D Distance.npi: MedChemExpress library; for Raw data [w Enyzm]: with enzyme; for Raw data [w/o Enzym]: without enzyme
T1 construct: made in house; host or cells: E. coli BL21 (DE3), pET15b-Rlig1
T1 sequence (Q8N999 whole entry): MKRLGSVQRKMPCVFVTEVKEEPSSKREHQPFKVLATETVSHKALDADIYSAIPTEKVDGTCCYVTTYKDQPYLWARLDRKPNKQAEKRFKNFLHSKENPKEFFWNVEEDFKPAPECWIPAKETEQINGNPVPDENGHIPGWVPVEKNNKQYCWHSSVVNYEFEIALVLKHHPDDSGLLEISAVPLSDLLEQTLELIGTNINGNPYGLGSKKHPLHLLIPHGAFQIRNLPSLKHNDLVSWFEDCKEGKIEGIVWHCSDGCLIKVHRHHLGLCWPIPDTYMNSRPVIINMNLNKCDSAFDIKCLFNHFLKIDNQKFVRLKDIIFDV

[2] = tested on: PI5P4Kα; parameters: method as in MedChemExpress [1]; conditions: ref MedChemExpress [1], cited from earlier work
[3] = molecular target: protein kinase C (PKC); parameters: method as in MedChemExpress; conditions: PKC activity; ref MedChemExpress; cited from earlier work
[4] = ref MedChemExpress, cited from earlier work
[5] = DMSO; ultrasonic/warming; ref MedChemExpress; cited from earlier work
[6] = tested on: acid protease; parameters: method as in MedChemExpress; conditions: ref MedChemExpress, cited from earlier work
[7] = molecular target: proctase; parameters: method as in MedChemExpress; conditions: ref MedChemExpress, cited from earlier work
[8] = tested on: pepsin; parameters: method as in MedChemExpress; conditions: ref MedChemExpress, cited from earlier work
[9] = tested on: PKC; parameters: method as in MedChemExpress; conditions: ref MedChemExpress, cited from earlier work
[10] = sheet HTS hits, difference of raw data w/o and w enzyme
[11] = HTS hits, difference of raw data without and with enzyme
[12] = HTS hits, difference of raw data w/o and w enzyme

Row | Structure (SMILES) | 1-D Distance.npi ([1]; sheet HTS hits) | 1-D Distance [1, 10] | Raw data [w Enyzm] ([1]; sheet HTS hits) | Raw data [w/o Enzym] ([1]; sheet HTS hits) | IC50 [3] [nM] | 1-D Distance [1, 11] | Raw data [w Enyzm] ([1]; HTS hits) | Raw data [w/o Enzym] ([1]; HTS hits) | 1-D Distance [1, 12] | solubility, DMSO [5] | also measured
1 | COc1cc(/C=C(\C#N)C(=O)c2ccc(O)c(O)c2)cc(I)c1O [I-OMe-Tyrphostin AG 538] | 98.3407 | 515 | 1659 | 2174 |  |  |  |  |  |  | IC50 ([2]; ATP-competitive): 1000 nM
2 | Cl.Cl.O=C1c2c(O)ccc(O)c2C(=O)c2c(NCCNCCO)ccc(NCCNCCO)c21 [Mitoxantrone (dihydrochloride)] |  |  |  |  | 8500 | 208 | 3238 | 3030 |  |  | 1-D Distance.npi ([1]; HTS hits): 101.642
3 | O=C1c2c(O)ccc(O)c2C(=O)c2c(NCCNCCO)ccc(NCCNCCO)c21 [Mitoxantrone] |  |  |  |  | 8500 | 308 | 3553 | 3245 |  |  | solubility ([4]; DMSO): 62.5 mg/mL and 140.61 mM; solubility ([4]; H2O): 100 mg/mL and 224.98 mM
4 | CC(C)CC(=O)N[C@H](C(=O)N[C@H](C(=O)N[C@@H](CC(C)C)[C@@H](O)CC(=O)N[C@@H](C)C(=O)N[C@@H](CC(C)C)[C@@H](O)CC(=O)O)C(C)C)C(C)C [Pepstatin] (Isovaleryl-VV[Sta]A[Sta]-OH) |  |  |  |  |  |  | 8928 | 10682 | 1754 | 125 mg/mL and 182.24 mM | IC50 ([6]; substrate casein, read-out: IC50, casein-acid protease): 520 nM; IC50 ([6]; substrate hemoglobin, read-out: IC50, hemoglobin-acid protease): 260 nM; IC50 ([7]; substrate casein, read-out: IC50, casein-proctase): 290 nM; IC50 ([7]; substrate hemoglobin, read-out: IC50, hemoglobin-proctase): 6.2 nM; IC50 ([8]; substrate casein, read-out: IC50, casein-pepsin): 150 nM; IC50 ([8]; substrate hemoglobin, read-out: IC50, hemoglobin-pepsin): 4.5 nM
5 | CN(C)C/C=C/C(=O)Nc1ccc(C(=O)Nc2cccc(Nc3cc(-c4c[nH]c5ccccc45)ncn3)c2)cc1 [THZ-P1-2] | 94.2865 | 656 | 5306 | 4650 |  |  |  |  |  |  | IC50 [2]: 190 nM
6 | CCCCC(=O)OCC(=O)[C@]1(O)Cc2c(O)c3c(c(O)c2[C@@H](O[C@H]2C[C@H](NC(=O)C(F)(F)F)[C@H](O)[C@H](C)O2)C1)C(=O)c1c(OC)cccc1C3=O [Valrubicin] |  |  |  |  |  |  | 2541 | 4201 | 1660 | 125 mg/mL and 172.74 mM | IC50 ([9]; PDBu-induced, read-out: IC50, PDBu-induced PKC activation): 1250 nM; IC50 ([9]; TPA-induced, read-out: IC50, TPA-induced PKC activation): 850 nM

Source: article PMC11747885, “Potent inhibitors of the human RNA ligase Rlig1 highlights its role in RNA integrity maintenance under oxidative cellular stress” (Chemical Science, 2025)
